Six compounds from patent US20200407393A1, “Medical Use” (priority 2018, published 2020) can be followed below.

The test system of test [1] is WT pseudotyped virus (PSV) infection of U373 cells. The test is described as follows: microbe, parasite or virus in culture. It counts as cell-based. The note with it: for pIC50: Human immunodeficiency virus 1, U373 MG, cells treated 6 h, washed; for Fold Change vs EFdA: fold change of the persistence index relative to EFdA; for Persistence Index: ratio of the IC50 determined at 48 and 0 h.

The subject of test [2] is WT pseudotyped virus (NL4-3 provirus with HIV gp160 envelope) in U373 cells. As to the kind of experiment: PSV assay (pseudotyped virus assay), WT. The settings on record: read-out: WT IC50.
Text: A pseudotyped virus assay (PSV) was used to assess the potency of the compounds. Replication defective virus was produced by co-transfection of a plasmid containing an NL4-3 provirus [containing a mutation in the envelope open reading frame (ORF) and a luciferase reporter gene replacing the nef ORF] and a CMV-promoter expression plasmid containing an ORF for various HIV gp160 envelope clones. The harvested virus was stored at −80 C in small aliquots and the titer of the virus measured to produce a robust signal for antiviral assays.
The PSV assay was performed by using U373 cells stably transformed to express human CD4, the primary receptor for HIV entry and either human CXCR4 or human CCR5 which are the co-receptors required for HIV entry as target cells for infection. […] This dose-range was applied to U373 cells and the pre-made pseudotyped virus added. The amount of luciferase signal produced after 3 days of culture was used to reflect the level of pseudotyped virus infection. […] IC50 values were determined from a 10 point dose response curve using 3-4-fold serial dilution for each compound, which spans a concentration range>1000 fold.
These values are plotted against the molar compound concentrations using the standard four parameter logistic equation:
y=((Vmax*x^n)/(K^n+x^n))+Y2 • where: • Y2=minimum y n=slope factor • Vmax=maximum y x=compound concentration [M] • K=EC50
Test [3] relates to M184V pseudotyped virus in U373 cells. It counts as cell-based, HIV.
The mark [4] stands for this setting: infected immediately (0 h), read-out: WT IC50 at t = 0 h.
[5] abbreviates: infected 48 h after removal of compound, read-out: WT IC50 at t = 48 h.
[6] abbreviates: Human immunodeficiency virus 1, NL43, U373 MG, 72 h.
[7] abbreviates: Human immunodeficiency virus 1, NL43, U373 MG.
[8] abbreviates: Table 4, luciferase signal after 3 days of culture.
[9] abbreviates: Table 5, mean of a greater number of data replicates.

pIC50: −log10 of the molar value. Like-named read-outs stand apart in the source and are kept apart here.

Usually pIC50 stands for the IC50 on a negative log10 scale, so that one unit is a factor of ten. Regarding `C#C[C@]1(CO)O[C@@H](n2cnc3c(N)nc(F)nc32)C[C@@H]1O` [EFdA, (2R,3S,5R)-5-(6-amino-2-fluoro-9H-purin-9-yl)-2-ethynyl-2-(hydroxymethyl)tetrahydrofuran-3-ol, reference compound], the pIC50 in test [1] (setting [4]) is 8.13. Also, in test [1], the “Fold Change vs EFdA” value turned out to be 1.00 and the “Persistence Index” value is given as 42.87.
As for `C#C[C@]1(COC(=O)CCCCCCCCCCCCC)O[C@@H](n2cnc3c(N)nc(F)nc32)C[C@@H]1O` [Example 1, ((2R,3S,5R)-5-(6-amino-2-fluoro-9H-purin-9-yl)-2-ethynyl-3-hydroxytetrahydrofuran-2-yl)methyl tetradecanoate], the pIC50 is 7.05 in test [1] (setting [5]); 8.60 in test [1] (setting [4]); 8.70 in test [2] (setting [6]); 9.00 in test [2] (setting [7]); 7.92 in test [3] (setting [8]); 8.00 in test [3] (setting [9]). In test [1], the “Fold Change vs EFdA” value is listed as 1.33. In addition, the “Persistence Index” value in test [1] is reported as 35.22.
Turning to `C#C[C@]1(COC(=O)C(CCC)CCC)O[C@@H](n2cnc3c(N)nc(F)nc32)C[C@@H]1O` [Example 4, ((2R,3S,5R)-5-(6-amino-2-fluoro-9H-purin-9-yl)-2-ethynyl-3-hydroxytetrahydrofuran-2-yl)methyl 2-propyl pentanoate], the pIC50 is 6.16 in test [1] (setting [5]); 7.68 in test [1] (setting [4]); 7.85 in test [2] (setting [6]); 7.70 in test [2] (setting [7]); 6.92 in test [3] (setting [8]); 6.95 in test [3] (setting [9]). Further, in test [1], the “Fold Change vs EFdA” value was 1.31. In addition, in test [1], the “Persistence Index” value is on record as 32.78.
For the compound `C#C[C@]1(COC(=O)CCCCCCCCCCCCCCCCCCC)O[C@@H](n2cnc3c(N)nc(F)nc32)C[C@@H]1O` [Example 5, ((2R,3S,5R)-5-(6-amino-2-fluoro-9H-purin-9-yl)-2-ethynyl-3-hydroxytetrahydrofuran-2-yl)methyl icosanoate], the pIC50 in test [1] (setting [5]) is 6.99; in test [1] (setting [4]), 7.29; in test [2] (setting [6]), 7.15; in test [2] (setting [7]) it was 7.17; in test [3] (setting [8]), 6.49; in test [3] (setting [9]) it was 6.48. In addition, the “Fold Change vs EFdA” value in test [1] worked out at 23.90. The “Persistence Index” value in test [1] was 1.97.
With `C#C[C@]1(COC(=O)CCCCCCC/C=C\C/C=C\C/C=C\CC)O[C@@H](n2cnc3c(N)nc(F)nc32)C[C@@H]1O` [Example 6, (9Z,12Z,15Z)-((2R,3S,5R)-5-(6-amino-2-fluoro-9H-purin-9-yl)-2-ethynyl-3-hydroxytetrahydrofuran-2-yl)methyl octadeca-9,12,15-trienoate], the pIC50 in test [1] (setting [5]) is 6.75; in test [1] (setting [4]) it was 8.43; in test [2] (setting [6]), 8.40; in test [2] (setting [7]), 8.40; in test [3] (setting [8]), 7.62; in test [3] (setting [9]) it was 7.68. Further, in test [1], the “Fold Change vs EFdA” value was found to be 0.75. In test [1], the “Persistence Index” value is listed as 56.90.
As for “((2R,3S,5R)-5-(6-amino-2-fluoro-9H-purin-9-yl)-2-ethynyl-3-hydroxytetrahydrofuran-2-yl)methyl tetracosanoate [Example 16]”, the values for the pIC50 in test [2] (setting [9]) and in test [3] (setting [9]) were 5.64 and 4.97, respectively.
